Type in all cases: functional
The test system of assay [1] is Streptococcus pneumoniae. Kind of assay: Antibacterial activity against Streptococcus pneumoniae 994 expressing mef gene by NCCLS method.
In the next assay the test system is Streptococcus pyogenes. Kind of assay: Antibacterial activity against Streptococcus pyogenes 19615 by NCCLS method.
Another assay concerns Haemophilus influenzae. Briefly: Antibacterial activity against Haemophilus influenzae 38 by NCCLS method.
The next assay relates to Moraxella catarrhalis. Kind of assay: Antibacterial activity against Moraxella catarrhalis 8176 by NCCLS method.
The subject of assay [2] is Streptococcus pneumoniae. Kind of assay: Antibacterial activity against Streptococcus pneumoniae 6303 by NCCLS method.
Assay [3] deals with Streptococcus pneumoniae. Kind of assay: Antibacterial activity against Streptococcus pneumoniae 49619 by NCCLS method.
Assay [4] concerns Streptococcus pneumoniae. Kind of assay: Antibacterial activity against Streptococcus pneumoniae 3579 expressing erm gene by NCCLS method.
Assay [5] deals with Streptococcus pneumoniae. Briefly: Antibacterial activity against Streptococcus pneumoniae by NCCLS method.

Converted amounts (≈) assume the structure as drawn.

Consider `CC[C@H]1OC(=O)[C@H](C)[C@@H](OC(=O)Cc2cccnc2)[C@H](C)[C@@H](O[C@@H]2O[C@H](C)C[C@H](N(C)CC)[C@H]2O)[C@](C)(OC)C[C@@H](C)C(=O)[C@H](C)[C@H]2N(CCCCn3cnc(-c4cccnc4)c3)C(=O)O[C@]12C`, for which the MIC with Streptococcus pneumoniae [1] was found to be 0.125 µg/mL (≈ 0.132 µM); with Streptococcus pyogenes it was 0.03 µg/mL (≈ 0.0317 µM); with Haemophilus influenzae it was 1 µg/mL (≈ 1.06 µM); against Moraxella catarrhalis, 0.125 µg/mL (≈ 0.132 µM); in the assay on Streptococcus pneumoniae [2], 0.06 µg/mL (≈ 0.0633 µM); against Streptococcus pneumoniae [3] it was 0.03 µg/mL (≈ 0.0317 µM). The MIC against Streptococcus pneumoniae [4] came out at 2 µg/mL (≈ 2.11 µM).

With `CC[C@H]1OC(=O)[C@H](C)[C@@H](OC(=O)Cc2ccccn2)[C@H](C)[C@@H](O[C@@H]2O[C@H](C)C[C@H](N(C)CC)[C@H]2O)[C@](C)(OC)C[C@@H](C)C(=O)[C@H](C)[C@H]2N(CCCCn3cnc(-c4ccc(N)nc4)c3)C(=O)O[C@]12C`, the MIC in the assay with Streptococcus pneumoniae [1] is 0.125 µg/mL (≈ 0.13 µM); against Streptococcus pyogenes, 0.06 µg/mL (≈ 0.0624 µM); in the assay on Haemophilus influenzae, 0.125 µg/mL (≈ 0.13 µM); against Moraxella catarrhalis, 0.25 µg/mL (≈ 0.26 µM); against Streptococcus pneumoniae [2] it was 0.06 µg/mL (≈ 0.0624 µM); against Streptococcus pneumoniae [3], 0.06 µg/mL (≈ 0.0624 µM). This compound also showed an MIC in the assay on Streptococcus pneumoniae [4] of 0.25 µg/mL (≈ 0.26 µM).

On to `C=CCN(C)[C@H]1C[C@@H](C)O[C@@H](O[C@@H]2[C@@H](C)[C@H](OC(=O)Cc3ccccn3)[C@@H](C)C(=O)O[C@H](CC)[C@@]3(C)OC(=O)N[C@@H]3[C@@H](C)C(=O)[C@H](C)C[C@@]2(C)OC)[C@@H]1O`, for which the MIC in the assay with Streptococcus pneumoniae [1] came to 0.125 µg/mL (≈ 0.164 µM); with Streptococcus pyogenes, 0.015 µg/mL (≈ 0.0197 µM); against Moraxella catarrhalis, 1 µg/mL (≈ 1.32 µM); in the assay with Streptococcus pneumoniae [2] it was 0.125 µg/mL (≈ 0.164 µM); in the assay with Streptococcus pneumoniae [3] it was 0.015 µg/mL (≈ 0.0197 µM); against Streptococcus pneumoniae [4], 8 µg/mL (≈ 10.5 µM).

As for `C=CCN(C)[C@H]1C[C@@H](C)O[C@@H](O[C@@H]2[C@@H](C)[C@H](OC(=O)Cc3ccccn3)[C@@H](C)C(=O)O[C@H](CC)[C@@]3(C)OC(=O)N(CCCCn4cnc(-c5cccc(N)c5)c4)[C@@H]3[C@@H](C)C(=O)[C@H](C)C[C@@]2(C)OC)[C@@H]1O`, the MIC in the assay with Streptococcus pneumoniae [1] was 0.06 µg/mL (≈ 0.0617 µM); in the assay on Streptococcus pyogenes, 0.03 µg/mL (≈ 0.0308 µM); in the assay with Haemophilus influenzae, less than 0.06 µg/mL; against Moraxella catarrhalis it was 0.125 µg/mL (≈ 0.128 µM); in the assay on Streptococcus pneumoniae [2] it was 0.03 µg/mL (≈ 0.0308 µM); against Streptococcus pneumoniae [3], 0.03 µg/mL (≈ 0.0308 µM). This compound gave an MIC against Streptococcus pneumoniae [4] of 0.125 µg/mL (≈ 0.128 µM).

Consider `C=CCN(C)[C@H]1C[C@@H](C)O[C@@H](O[C@@H]2[C@@H](C)[C@H](OC(=O)Cc3ccccn3)[C@@H](C)C(=O)O[C@H](CC)[C@@]3(C)OC(=O)N(CCCCn4cnc5ccncc54)[C@@H]3[C@@H](C)C(=O)[C@H](C)C[C@@]2(C)OC)[C@@H]1O`, for which the MIC in the assay with Streptococcus pneumoniae [1] was determined as 0.125 µg/mL (≈ 0.134 µM); against Streptococcus pyogenes, 0.125 µg/mL (≈ 0.134 µM); with Haemophilus influenzae it was 0.06 µg/mL (≈ 0.0643 µM); in the assay on Moraxella catarrhalis, 0.06 µg/mL (≈ 0.0643 µM); against Streptococcus pneumoniae [2] it was 0.125 µg/mL (≈ 0.134 µM); in the assay with Streptococcus pneumoniae [3] it was 0.125 µg/mL (≈ 0.134 µM). In the assay with Streptococcus pneumoniae [4], the MIC stood at 0.25 µg/mL (≈ 0.268 µM).

`CC[C@H]1OC(=O)[C@H](C)[C@@H](O[C@H]2C[C@@](C)(OC)[C@@H](O)[C@H](C)O2)[C@H](C)[C@@H](O[C@@H]2O[C@H](C)C[C@H](N(C)C)[C@H]2O)[C@](C)(O)C[C@@H](C)CN(C)[C@H](C)[C@@H](O)[C@]1(C)O` [AZITHROMYCIN]: the MIC was 1 µg/mL (≈ 1.34 µM) in the assay on Streptococcus pneumoniae [1]; 0.25 µg/mL (≈ 0.334 µM) against Streptococcus pyogenes; greater than 16 µg/mL in the assay with Haemophilus influenzae; 16 µg/mL (≈ 21.4 µM) with Moraxella catarrhalis; 0.25 µg/mL (≈ 0.334 µM) against Streptococcus pneumoniae [2]; 0.25 µg/mL (≈ 0.334 µM) in the assay on Streptococcus pneumoniae [3]. Moreover, in the assay on Streptococcus pneumoniae [4], the MIC was 16 µg/mL (≈ 21.4 µM).

Regarding `CC[C@H]1OC(=O)[C@H](C)[C@@H](OC(=O)Cc2cccnc2)[C@H](C)[C@@H](O[C@@H]2O[C@H](C)C[C@H](N(C)CC)[C@H]2O)[C@](C)(OC)C[C@@H](C)C(=O)[C@H](C)[C@H]2N(CCCCn3cnc4ncccc43)C(=O)O[C@]12C`, the MIC is 0.25 µg/mL (≈ 0.271 µM) with Streptococcus pneumoniae [1]; 0.03 µg/mL (≈ 0.0326 µM) in the assay with Streptococcus pyogenes; less than 0.03 µg/mL against Haemophilus influenzae; 0.25 µg/mL (≈ 0.271 µM) with Moraxella catarrhalis; 0.06 µg/mL (≈ 0.0651 µM) with Streptococcus pneumoniae [2]; 0.03 µg/mL (≈ 0.0326 µM) with Streptococcus pneumoniae [3]. The compound further had an MIC in the assay with Streptococcus pneumoniae [4] of 2 µg/mL (≈ 2.17 µM).

Turning to `CC[C@H]1OC(=O)[C@H](C)[C@@H](OC(=O)Cc2ccccn2)[C@H](C)[C@@H](O[C@@H]2O[C@H](C)C[C@H](N(C)CC)[C@H]2O)[C@](C)(OC)C[C@@H](C)C(=O)[C@H](C)[C@H]2N(CCCCn3cnc4ncccc43)C(=O)O[C@]12C`, the MIC worked out at 0.25 µg/mL (≈ 0.271 µM) in the assay with Streptococcus pneumoniae [1]; 0.03 µg/mL (≈ 0.0326 µM) with Streptococcus pyogenes; 0.06 µg/mL (≈ 0.0651 µM) in the assay with Haemophilus influenzae; 0.125 µg/mL (≈ 0.136 µM) against Moraxella catarrhalis; 0.06 µg/mL (≈ 0.0651 µM) with Streptococcus pneumoniae [2]; 0.015 µg/mL (≈ 0.0163 µM) in the assay on Streptococcus pneumoniae [3]. This compound also yielded an MIC against Streptococcus pneumoniae [4] of 0.25 µg/mL (≈ 0.271 µM).

`CC[C@H]1OC(=O)[C@H](C)[C@@H](OC(=O)Cc2cccnc2)[C@H](C)[C@@H](O[C@@H]2O[C@H](C)C[C@H](N(C)CC)[C@H]2O)[C@](C)(OC)C[C@@H](C)C(=O)[C@H](C)[C@H]2N(CCCCn3cnc(-c4ccc(N)nc4)c3)C(=O)O[C@]12C`: the MIC with Streptococcus pneumoniae [1] was determined as 0.125 µg/mL (≈ 0.13 µM); in the assay on Streptococcus pyogenes, 0.03 µg/mL (≈ 0.0312 µM); with Haemophilus influenzae, 0.125 µg/mL (≈ 0.13 µM); with Moraxella catarrhalis it was 0.125 µg/mL (≈ 0.13 µM); against Streptococcus pneumoniae [2], 0.06 µg/mL (≈ 0.0624 µM); in the assay with Streptococcus pneumoniae [3], 0.06 µg/mL (≈ 0.0624 µM). The same compound gave an MIC in the assay on Streptococcus pneumoniae [4] of 0.25 µg/mL (≈ 0.26 µM).

In the case of `C=CCN(C)[C@H]1C[C@@H](C)O[C@@H](O[C@@H]2[C@@H](C)[C@H](OC(=O)Cc3ccccn3)[C@@H](C)C(=O)O[C@H](CC)[C@@]3(C)OC(=O)N(CCCCn4cnc(-c5cccnc5)c4)[C@@H]3[C@@H](C)C(=O)[C@H](C)C[C@@]2(C)OC)[C@@H]1O`, the MIC in the assay with Streptococcus pneumoniae [1] was 0.125 µg/mL (≈ 0.13 µM); against Streptococcus pyogenes, 0.008 µg/mL (≈ 0.00834 µM); against Haemophilus influenzae it was 0.125 µg/mL (≈ 0.13 µM); against Moraxella catarrhalis, 0.125 µg/mL (≈ 0.13 µM); against Streptococcus pneumoniae [2], 0.015 µg/mL (≈ 0.0156 µM); with Streptococcus pneumoniae [3], 0.008 µg/mL (≈ 0.00834 µM). Moreover, in the assay with Streptococcus pneumoniae [4], the MIC was 0.25 µg/mL (≈ 0.261 µM).

On to `C=CCN(C)[C@H]1C[C@@H](C)O[C@@H](O[C@@H]2[C@@H](C)[C@H](OC(=O)Cc3ccccn3)[C@@H](C)C(=O)O[C@H](CC)[C@@]3(C)OC(=O)N(CCCCn4cnc(-c5cnc(N)nc5)c4)[C@@H]3[C@@H](C)C(=O)[C@H](C)C[C@@]2(C)OC)[C@@H]1O`, for which the MIC in the assay on Streptococcus pneumoniae [1] was determined as 0.06 µg/mL (≈ 0.0615 µM); against Streptococcus pyogenes it was 2 µg/mL (≈ 2.05 µM); with Moraxella catarrhalis, 0.125 µg/mL (≈ 0.128 µM); in the assay on Streptococcus pneumoniae [2], 0.03 µg/mL (≈ 0.0308 µM); against Streptococcus pneumoniae [3], 0.03 µg/mL (≈ 0.0308 µM); against Streptococcus pneumoniae [4] it was 0.125 µg/mL (≈ 0.128 µM).

Consider `C=CCN(C)[C@H]1C[C@@H](C)O[C@@H](O[C@@H]2[C@@H](C)[C@H](OC(=O)Cc3ccccn3)[C@@H](C)C(=O)O[C@H](CC)[C@@]3(C)OC(=O)N(CCCCn4cnc5cccnc54)[C@@H]3[C@@H](C)C(=O)[C@H](C)C[C@@]2(C)OC)[C@@H]1O`, for which the MIC with Streptococcus pneumoniae [1] was 0.5 µg/mL (≈ 0.536 µM); with Streptococcus pyogenes, 0.125 µg/mL (≈ 0.134 µM); against Haemophilus influenzae, less than 0.06 µg/mL; against Moraxella catarrhalis it was 0.125 µg/mL (≈ 0.134 µM); against Streptococcus pneumoniae [2], 0.125 µg/mL (≈ 0.134 µM); in the assay with Streptococcus pneumoniae [3] it was 0.06 µg/mL (≈ 0.0643 µM). The compound further gave an MIC with Streptococcus pneumoniae [4] of 0.5 µg/mL (≈ 0.536 µM).

In the case of `C=CCN(C)[C@H]1C[C@@H](C)O[C@@H](O[C@@H]2[C@@H](C)[C@H](OC(=O)Cc3ccc(F)cc3)[C@@H](C)C(=O)O[C@H](CC)[C@@](C)(O)[C@H](O)[C@@H](C)C(=O)[C@H](C)C[C@@]2(C)OC)[C@@H]1O`, the MIC against Streptococcus pneumoniae [5] is 0.5 µg/mL (≈ 0.665 µM).

The compound `CC[C@H]1OC(=O)[C@H](C)[C@@H](OC(=O)Cc2cccc(F)c2)[C@H](C)[C@@H](O[C@@H]2O[C@H](C)C[C@H](N(C)Cc3ccccc3)[C@H]2O)[C@](C)(OC)C[C@@H](C)C(=O)[C@H](C)[C@@H](O)[C@]1(C)O` yielded an MIC in the assay with Streptococcus pneumoniae [5] of 1 µg/mL (≈ 1.25 µM).

The compound `C#CCN(C)[C@H]1C[C@@H](C)O[C@@H](O[C@@H]2[C@@H](C)[C@H](OC(=O)Cc3ccccc3[N+](=O)[O-])[C@@H](C)C(=O)O[C@H](CC)[C@@](C)(O)[C@H](O)[C@@H](C)C(=O)[C@H](C)C[C@@]2(C)OC)[C@@H]1O` displayed an MIC with Streptococcus pneumoniae [5] of 2 µg/mL (≈ 2.57 µM).

The record behind these values is ChEMBL document CHEMBL1933046, “Synthesis and antibacterial activity of a novel series of acylides active against community acquired respiratory pathogens” (2012).
